Laboratory results from US6656969B2, “Methods and compositions for inhibiting the proliferation of prostate cancer cells” (Mayo Foundation for Medical Education and Research, priority 2001, dated 2003).

Assays:
PSA = PSA quantification in spent media (Tandem-E PSA kit); format: cell-based, human; details: LNCaP cells, 1 nM Mib, six days, normalized to cell number
Method: (§1) A human prostate cancer cell line, LNCaP (American Type Culture Collection (ATCC), Manassas, Va.), was cultured in RPMI 1640 medium (Mediatech, Herndon, Va.) supplemented with 5% fetal bovine serum (FBS) at 37° C. and 5% CO2 until reaching approximately 50-70% confluence. The media were changed to serum-free RPMI 1640 24 hrs prior to experiments being performed to deplete undesired steroids. […] Equivalent amounts of solvent were added to control cells.
(§2) For cell proliferation and PSA expression assays, LNCaP cells were seeded at 2×10^4 cells per well in 24 well plates. […] Six days after treatment, 400 μl of spent media were collected for total PSA protein measurements by the Tandem-E PSA kit (Hybritech Inc. San Diego, Calif.). An MTS assay was performed (Promega, Madison, Wis.) for measuring cell viability. Four wells per treatment were used for the above assays and it was repeated twice. PSA levels in spent media were normalized to cell number.

c-fos = assay: Level of c-fos in LNCaP cells; format: cell-based, human
hsp90 = assay: Level of hsp90; format: cell-based
hsp70 = assay: Level of hsp70; format: cell-based
LNCaP cells = assay: Cell proliferation (MTS) assay, androgen-stimulated growth; format: cell-based, human; details: six days; for androgen-stimulated cell growth: with 1 nM mibolerone (Mib)
Method: as §1, §2

[1] = test system: androgen-regulated genes (NKX 3.1, ODC, fkbp 51, Drg-1, PSA); assay: Northern blot of androgen-regulated genes in LNCaP cells; format: cell-based, human
Method: A denaturing RNA gel was run and transferred onto a nylon membrane (BioRad) according to the GeneScreen protocol (New England Nuclear). Fifteen μg of total RNA was loaded in each lane. cDNAs for PSA, ornithine decarboxylase (ODC), NKX 3.1, fkbp 51, Drg-1 and glyceraldehyde-3-phosphate dehydogenase (GAPDH) were labeled with [P^32]dCTP by random priming and used as probes. The hybridizations were performed according to the recommended protocol using ExpressHyb Hybridization Solution (Clontech, Palo Alto, Calif.). The films were autoradiographed at −70° C. overnight.

ARA70 = assay: Level of androgen receptor specific co-activator ARA70; format: cell-based
androgen receptor = target: T1, androgen receptor (Homo sapiens, UniProt P10275, T878A); format: cell-based; details: LNCaP cells, 3.2 nM Mib
T1 construct: LNCaP cells express the androgen receptor; endogenous in cells; host or cells: LNCaP
T1 sequence (P10275 whole entry T878A): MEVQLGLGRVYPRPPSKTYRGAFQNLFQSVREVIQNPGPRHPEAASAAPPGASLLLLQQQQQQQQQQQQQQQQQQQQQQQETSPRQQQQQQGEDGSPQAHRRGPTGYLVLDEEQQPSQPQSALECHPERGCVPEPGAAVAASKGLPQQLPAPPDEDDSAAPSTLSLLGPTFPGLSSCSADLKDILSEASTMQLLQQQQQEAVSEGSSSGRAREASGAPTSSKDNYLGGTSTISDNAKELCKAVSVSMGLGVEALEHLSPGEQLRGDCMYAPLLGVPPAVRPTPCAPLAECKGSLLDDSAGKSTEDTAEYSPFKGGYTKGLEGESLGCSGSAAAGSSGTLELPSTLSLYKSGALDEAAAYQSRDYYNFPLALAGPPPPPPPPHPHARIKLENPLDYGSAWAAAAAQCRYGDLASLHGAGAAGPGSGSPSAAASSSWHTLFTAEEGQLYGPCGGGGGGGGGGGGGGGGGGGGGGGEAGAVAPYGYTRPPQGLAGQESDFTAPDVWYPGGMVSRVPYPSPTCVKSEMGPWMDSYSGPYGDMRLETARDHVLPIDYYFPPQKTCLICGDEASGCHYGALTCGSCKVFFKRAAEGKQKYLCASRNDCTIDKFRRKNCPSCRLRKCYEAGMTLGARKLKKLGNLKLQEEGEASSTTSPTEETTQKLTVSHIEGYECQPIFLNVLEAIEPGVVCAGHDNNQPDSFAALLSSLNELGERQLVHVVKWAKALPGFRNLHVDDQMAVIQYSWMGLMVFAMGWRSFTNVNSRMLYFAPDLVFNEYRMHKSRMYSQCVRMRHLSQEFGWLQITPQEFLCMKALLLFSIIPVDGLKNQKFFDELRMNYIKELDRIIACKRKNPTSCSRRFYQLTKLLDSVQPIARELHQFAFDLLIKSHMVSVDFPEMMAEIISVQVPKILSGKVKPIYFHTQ
Method: LNCaP or PC-3 cells were plated in 60 mm dishes. Cells were transiently transfected as described (Zhang et al., 1999, Endocrin, 140:1665-71) with either 3 copies of an hK2 ARE in a pGL3 promoter plasmid, CMV-β-gal, a human androgen receptor expression vector or a c-jun expression vector as indicated. The androgen receptor and c-jun constructs were driven by an SV40 promoter. LNCaP cells were transfected using liposome containing dimethyldioctadecyl-ammonium bromide (DDAB) (Sigma) and L-α-lecithin (Sigma) (4:10 w/w) and PC-3 cells were transfected using lipofectamine (Gibco BRL, Grand Island, N.Y.). […] Whole cell extracts were prepared according to Ren et al., (2000, Oncogene, 19:1924-32) and a luciferase assay was performed according to manufacturer's instructions (Promega). The CMV-β-galactosidase (β-gal) expression vector and the parental vector (pGL3) were included as controls in the above transfections. β-gal activity or total protein using the Bradford assay (BioRad, Hercules, Calif.) were assayed for normalization purposes. Luciferase activities were normalized to β-gal activities and presented as relative light units/mU β-gal. Each transfection was done three times and results were analyzed by the Student's t-test. A p<0.05 was accepted as the level of significance.

| Structure (SMILES) | androgen-stimulated PSA secretion (PSA) | levels of c-fos (c-fos) | levels of hsp90 (hsp90) | levels of hsp70 (hsp70) | androgen-stimulated cell growth (LNCaP cells) | cell growth without androgen stimulation (LNCaP cells; without Mib) | androgen-induced mRNA of NKX 3.1, ODC, fkbp 51, Drg-1 and PSA ([1]; 1 nM Mib, DHA at 150 μM or higher) | levels of ARA70 (ARA70) | mRNA and protein levels of PSA and hK2 ([1]; summary statement) | ARE luciferase activity, androgen alone (androgen receptor) |
| --- | --- | --- | --- | --- | --- | --- | --- | --- | --- | --- |
| CCC=CCC=CCC=CCC=CCC=CC/C=C\CCC(=O)O [DHA, cis-4,7, 10, 13, 16, 19-docosahexaenoic acid] | decrease in androgen-stimulated PSA secretion | unaltered | no inhibitory effects were observed | no inhibitory effects were observed | dose-dependent statistically significant decrease in cell growth | little response | greatly inhibited the androgen-induced response | no inhibitory effects were observed | – | – |
| CCC=CCC=CCC=CCC=CC/C=C\CCCC(=O)O [EPA, cis-5,8, 11, 14, 17-eicosapentaenoic acid] | required higher EPA concentrations for significant inhibition | – | no inhibitory effects were observed | no inhibitory effects were observed | decreased androgen-stimulated cell growth | – | – | – | reduce both the mRNA and protein levels | – |
| C[C@@H]1CC2=CC(=O)CC[C@@H]2[C@H]2CC[C@@]3(C)[C@@H](CC[C@]3(C)O)[C@@H]21 [Mib, mibolerone] | – | – | – | – | – | – | – | – | – | strong androgenic induction of luciferase activity |
